Consider two molecules from ChEMBL document CHEMBL3046556, “Microwave-assisted synthesis and antimicrobial screening of new imidazole derivatives bearing 4-thiazolidinone nucleus” (2013).

Values after ≈ are worked out from the molar mass of the structure shown.

Format in all cases: functional
Assay [1] has as its system Streptococcus pyogenes. The assay can be described thus: Antibacterial activity against Streptococcus pyogenes MTCC 442 assessed as growth inhibition after 24 hr by NCCLS broth dilution method. The conditions noted are these: MTCC 442, 24 h. (In general: Broth dilution looks for growth in wells or tubes with falling amounts of substance.)
In assay [2] the test system is Candida albicans. The assay can be described thus: Antifungal activity against Candida albicans MTCC 227 assessed as growth inhibition after 48 hr by broth dilution method. The conditions noted are these: MTCC 227, 48 h.
Assay [3] relates to Aspergillus niger. The assay can be described thus: Antifungal activity against Aspergillus niger MTCC 282 assessed as growth inhibition after 48 hr by broth dilution method. The conditions noted are these: MTCC 282, 48 h.
In assay [4] the test system is Pseudomonas aeruginosa. The assay can be described thus: Antibacterial activity against Pseudomonas aeruginosa MTCC 1688 assessed as growth inhibition after 24 hr by NCCLS broth dilution method. The conditions noted are these: MTCC 1688, 24 h.
Assay [5] relates to Escherichia coli. The assay is described as follows: Antibacterial activity against Escherichia coli MTCC 443 assessed as growth inhibition after 24 hr by NCCLS broth dilution method. The settings on record: MTCC 443, 24 h.
Assay [6] deals with Aspergillus clavatus. The assay can be described thus: Antifungal activity against Aspergillus clavatus MTCC 1323 assessed as growth inhibition after 48 hr by broth dilution method. The settings on record: MTCC 1323, 48 h.
For assay [7], the system named is Staphylococcus aureus. The assay can be described thus: Antibacterial activity against Staphylococcus aureus MTCC 96 assessed as growth inhibition after 24 hr by NCCLS broth dilution method. The conditions noted are these: MTCC 96, 24 h.

As usually defined, the MIC is the least concentration at which growth counts as inhibited. As to `COc1ccc(/C=C2\N=C(C)N(c3ccc(/C(C)=N/N=C4/NC(=O)CS4)cc3)C2=O)cc1`, the MIC in assay [1] worked out at 50 µg/mL (≈ 112 µM); in assay [2], 500 µg/mL (≈ 1120 µM); in assay [3], 250 µg/mL (≈ 559 µM); in assay [4] it was 100 µg/mL (≈ 223 µM); in assay [5] it was 250 µg/mL (≈ 559 µM); in assay [6], 250 µg/mL (≈ 559 µM). Further, in assay [7], the MIC was found to be 500 µg/mL (≈ 1120 µM).

As to `CC1=N/C(=C\c2ccc(F)cc2)C(=O)N1c1ccc(/C(C)=N/N=C2/NC(=O)CS2)cc1`, the MIC in assay [1] was found to be 500 µg/mL (≈ 1150 µM); in assay [2], 500 µg/mL (≈ 1150 µM); in assay [3], 500 µg/mL (≈ 1150 µM); in assay [4] it was 250 µg/mL (≈ 574 µM); in assay [5] it was 250 µg/mL (≈ 574 µM); in assay [6], 500 µg/mL (≈ 1150 µM). In addition, the MIC in assay [7] was 100 µg/mL (≈ 230 µM).
